Test system: MCF7
Assay: Cytotoxicity against human MCF7 cells after 36 hrs by MTT assay
Assay type: functional, cell-based
Conditions: MCF7, 36 h

Structure (SMILES)	IC50 [µM]
COc1cc(C2c3cc4c(cc3[C@H](OC(=O)[C@@H](C)N3C(=O)C5C6CCC(O6)C5C3=O)[C@H]3COC(=O)[C@H]23)OCO4)cc(OC)c1OC (stereo partly specified)	1.17
COc1cc([C@@H]2c3cc4c(cc3[C@@H](O[C@@H]3O[C@@H]5CO[C@@H](C)O[C@H]5[C@H](O)[C@H]3O)[C@H]3COC(=O)[C@H]23)OCO4)cc(OC)c1O [ETOPOSIDE]	1.74
COc1cc(C2c3cc4c(cc3[C@H](OC(=O)[C@H](Cc3ccccc3)N3C(=O)C5C6CCC(O6)C5C3=O)[C@H]3COC(=O)[C@H]23)OCO4)cc(OC)c1OC (stereo partly specified)	6.53
COc1cc(C2c3cc4c(cc3[C@H](OC(=O)[C@@H](Cc3ccccc3)N3C(=O)c5ccccc5C3=O)[C@H]3COC(=O)[C@H]23)OCO4)cc(OC)c1OC (stereo partly specified)	25.5
COc1cc(C2c3cc4c(cc3[C@H](OC(=O)[C@H](C)N3C(=O)C5C6CCC(O6)C5C3=O)[C@H]3COC(=O)[C@H]23)OCO4)cc(OC)c1OC (stereo partly specified)	1.22
COc1cc(C2c3cc4c(cc3[C@H](OC(=O)[C@@H](Cc3ccccc3)N3C(=O)C5CCCCC5C3=O)[C@H]3COC(=O)[C@H]23)OCO4)cc(OC)c1OC (stereo partly specified)	3.73
COc1cc(C2c3cc4c(cc3[C@H](OC(=O)C(C)N3C(=O)C5CCCCC5C3=O)[C@H]3COC(=O)[C@H]23)OCO4)cc(OC)c1OC (stereo partly specified)	1.87
COc1cc(C2c3cc4c(cc3[C@H](OC(=O)[C@H](Cc3ccccc3)N3C(=O)C5CCCCC5C3=O)[C@H]3COC(=O)[C@H]23)OCO4)cc(OC)c1OC (stereo partly specified)	8.24
COc1cc(C2c3cc4c(cc3[C@H](OC(=O)C(C)N3C(=O)C5C6CCC(O6)C5C3=O)[C@H]3COC(=O)[C@H]23)OCO4)cc(OC)c1OC (stereo partly specified)	1.74

Test system: A549
Assay: Cytotoxicity against human A549 cells after 36 hrs by MTT assay
Assay type: functional, cell-based
Conditions: A549, 36 h

Structure (SMILES)	IC50 [µM]
COc1cc(C2c3cc4c(cc3[C@H](OC(=O)[C@@H](C)N3C(=O)C5C6CCC(O6)C5C3=O)[C@H]3COC(=O)[C@H]23)OCO4)cc(OC)c1OC (stereo partly specified)	2
COc1cc([C@@H]2c3cc4c(cc3[C@@H](O[C@@H]3O[C@@H]5CO[C@@H](C)O[C@H]5[C@H](O)[C@H]3O)[C@H]3COC(=O)[C@H]23)OCO4)cc(OC)c1O [ETOPOSIDE]	8.01
COc1cc(C2c3cc4c(cc3[C@H](OC(=O)[C@H](Cc3ccccc3)N3C(=O)C5C6CCC(O6)C5C3=O)[C@H]3COC(=O)[C@H]23)OCO4)cc(OC)c1OC (stereo partly specified)	3.69
COc1cc(C2c3cc4c(cc3[C@H](OC(=O)[C@@H](Cc3ccccc3)N3C(=O)c5ccccc5C3=O)[C@H]3COC(=O)[C@H]23)OCO4)cc(OC)c1OC (stereo partly specified)	7.28
COc1cc(C2c3cc4c(cc3[C@H](OC(=O)[C@H](C)N3C(=O)C5C6CCC(O6)C5C3=O)[C@H]3COC(=O)[C@H]23)OCO4)cc(OC)c1OC (stereo partly specified)	1.18
COc1cc(C2c3cc4c(cc3[C@H](OC(=O)[C@@H](Cc3ccccc3)N3C(=O)C5CCCCC5C3=O)[C@H]3COC(=O)[C@H]23)OCO4)cc(OC)c1OC (stereo partly specified)	3.89
COc1cc(C2c3cc4c(cc3[C@H](OC(=O)C(C)N3C(=O)C5CCCCC5C3=O)[C@H]3COC(=O)[C@H]23)OCO4)cc(OC)c1OC (stereo partly specified)	2.34
COc1cc(C2c3cc4c(cc3[C@H](OC(=O)[C@H](Cc3ccccc3)N3C(=O)C5CCCCC5C3=O)[C@H]3COC(=O)[C@H]23)OCO4)cc(OC)c1OC (stereo partly specified)	4.92
COc1cc(C2c3cc4c(cc3[C@H](OC(=O)C(C)N3C(=O)C5C6CCC(O6)C5C3=O)[C@H]3COC(=O)[C@H]23)OCO4)cc(OC)c1OC (stereo partly specified)	1.91

Test system: HeLa
Assay: Cytotoxicity against human HeLa cells after 36 hrs by MTT assay
Assay type: functional, cell-based
Conditions: not given

Structure (SMILES)	IC50 [µM]
COc1cc(C2c3cc4c(cc3[C@H](OC(=O)[C@@H](C)N3C(=O)C5C6CCC(O6)C5C3=O)[C@H]3COC(=O)[C@H]23)OCO4)cc(OC)c1OC (stereo partly specified)	1.14
COc1cc([C@@H]2c3cc4c(cc3[C@@H](O[C@@H]3O[C@@H]5CO[C@@H](C)O[C@H]5[C@H](O)[C@H]3O)[C@H]3COC(=O)[C@H]23)OCO4)cc(OC)c1O [ETOPOSIDE]	4.39
COc1cc(C2c3cc4c(cc3[C@H](OC(=O)[C@H](Cc3ccccc3)N3C(=O)C5C6CCC(O6)C5C3=O)[C@H]3COC(=O)[C@H]23)OCO4)cc(OC)c1OC (stereo partly specified)	8.79
COc1cc(C2c3cc4c(cc3[C@H](OC(=O)[C@@H](Cc3ccccc3)N3C(=O)c5ccccc5C3=O)[C@H]3COC(=O)[C@H]23)OCO4)cc(OC)c1OC (stereo partly specified)	18.7
COc1cc(C2c3cc4c(cc3[C@H](OC(=O)[C@H](C)N3C(=O)C5C6CCC(O6)C5C3=O)[C@H]3COC(=O)[C@H]23)OCO4)cc(OC)c1OC (stereo partly specified)	3.02
COc1cc(C2c3cc4c(cc3[C@H](OC(=O)[C@@H](Cc3ccccc3)N3C(=O)C5CCCCC5C3=O)[C@H]3COC(=O)[C@H]23)OCO4)cc(OC)c1OC (stereo partly specified)	3.89
COc1cc(C2c3cc4c(cc3[C@H](OC(=O)C(C)N3C(=O)C5CCCCC5C3=O)[C@H]3COC(=O)[C@H]23)OCO4)cc(OC)c1OC (stereo partly specified)	2.01
COc1cc(C2c3cc4c(cc3[C@H](OC(=O)[C@H](Cc3ccccc3)N3C(=O)C5CCCCC5C3=O)[C@H]3COC(=O)[C@H]23)OCO4)cc(OC)c1OC (stereo partly specified)	8.28
COc1cc(C2c3cc4c(cc3[C@H](OC(=O)C(C)N3C(=O)C5C6CCC(O6)C5C3=O)[C@H]3COC(=O)[C@H]23)OCO4)cc(OC)c1OC (stereo partly specified)	1.86

Test system: not listed separately
Assay: Cytotoxicity against HEK293T cells after 36 hrs by MTT assay
Assay type: cell-based
Conditions: Homo sapiens, HEK-293T

Structure (SMILES)	IC50 [µM]
COc1cc(C2c3cc4c(cc3[C@H](OC(=O)[C@@H](C)N3C(=O)C5C6CCC(O6)C5C3=O)[C@H]3COC(=O)[C@H]23)OCO4)cc(OC)c1OC (stereo partly specified)	80.8
COc1cc([C@@H]2c3cc4c(cc3[C@@H](O[C@@H]3O[C@@H]5CO[C@@H](C)O[C@H]5[C@H](O)[C@H]3O)[C@H]3COC(=O)[C@H]23)OCO4)cc(OC)c1O [ETOPOSIDE]	11.5
COc1cc(C2c3cc4c(cc3[C@H](OC(=O)[C@H](Cc3ccccc3)N3C(=O)C5C6CCC(O6)C5C3=O)[C@H]3COC(=O)[C@H]23)OCO4)cc(OC)c1OC (stereo partly specified)	70.3
COc1cc(C2c3cc4c(cc3[C@H](OC(=O)[C@@H](Cc3ccccc3)N3C(=O)c5ccccc5C3=O)[C@H]3COC(=O)[C@H]23)OCO4)cc(OC)c1OC (stereo partly specified)	50.9
COc1cc(C2c3cc4c(cc3[C@H](OC(=O)[C@H](C)N3C(=O)C5C6CCC(O6)C5C3=O)[C@H]3COC(=O)[C@H]23)OCO4)cc(OC)c1OC (stereo partly specified)	64.2
COc1cc(C2c3cc4c(cc3[C@H](OC(=O)[C@@H](Cc3ccccc3)N3C(=O)C5CCCCC5C3=O)[C@H]3COC(=O)[C@H]23)OCO4)cc(OC)c1OC (stereo partly specified)	63.4
COc1cc(C2c3cc4c(cc3[C@H](OC(=O)C(C)N3C(=O)C5CCCCC5C3=O)[C@H]3COC(=O)[C@H]23)OCO4)cc(OC)c1OC (stereo partly specified)	90.7
COc1cc(C2c3cc4c(cc3[C@H](OC(=O)[C@H](Cc3ccccc3)N3C(=O)C5CCCCC5C3=O)[C@H]3COC(=O)[C@H]23)OCO4)cc(OC)c1OC (stereo partly specified)	42.6
COc1cc(C2c3cc4c(cc3[C@H](OC(=O)C(C)N3C(=O)C5C6CCC(O6)C5C3=O)[C@H]3COC(=O)[C@H]23)OCO4)cc(OC)c1OC (stereo partly specified)	53.2
